Results published in PubChem BioAssay AID2060912 (Molecular Pharmacology Branch, DTP, NCI, 2025).

System: HUVEC/MSC spheroids viability
Test: Human HUVEC/MSC cell line growth inhibition [KRAS2];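 on viability, T/C: percent of DMSO vehicle control luminescence so 100% = untreated viability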
Details: for IC50: curve of first compound; for viability, T/C: stronger effect = lower value; active means viability on the fitted dose curve at most 10% of control; inactive means the rest
Source text: Multicellular complex tumor spheroid response to RAS pathway inhibitors in combination with a targeted agents in patient-derived cell lines with oncogenic KRAS variants from multiple cancer types
A high-throughput screen of multi-cell type tumor spheroids was designed to identify active combinations of targeted small molecules and KRAS pathway inhibitors. Complex spheroids include a stromal component modeled by human endothelial cells (HUVEC) and fibroblasts modeled by human mesenchymal stem cells (MSCs). The concentration ranges selected for each drug and investigational agent were based upon clinically achievable concentrations if the clinical Cmax of the agent was known. * [This particular assayID is a followup dataset requested by reviewers of the manuscript. It is a test of the HUVEC and MSC without the tumor cells, and was conducted using different drug plates and a different plate layout.]
Compounds. The drugs and investigational agents: BI-3406 (NSC825286), BAY-293 (NSC824723), batoprotafib (TNO155; NSC825523), sotorasib (AMG 510; NSC818433), MRTX1257 (NSC819558), elimusertib (BAY 1895344; NSC800525), molibresib (GSK525762; NSC774829), temuterkib (LY3214996; NSC803410), venetoclax (NSC766270), alisertib (NSC759677), olaparib (NSC753686), talazoparib (NSC767125), erdafitinib (NSC781556), ipatasertib (NSC767898), cabozantinib (NSC761068), nintedanib (NSC756659), abemaciclib (NSC768073), docetaxel (NSC628503), trametinib (NSC758246), and sapanisertib (NSC764658) were obtained from the National Cancer Institute (NCI) Developmental Therapeutics Program Chemical Repository. The FDA-approved anticancer drug set is available from the Developmental Therapeutics Program. […] The stock solutions were prepared in dimethyl sulfoxide (DMSO, Sigma-Aldrich, St. Louis, MO, cat. D2650) at 800-fold the tested concentration and stored at -70 degrees C prior to their use. All drugs and investigational agents were tested over a range starting from a high concentration at or near the clinical Cmax and decreasing in half-log increments. If the clinical Cmax for an agent had not been determined, the highest concentration tested was 10 microM.
Cell Culture. All cells were maintained in an incubator at 37 degrees C and 5% CO2 with 95% humidity. The PDC lines were cultured according to standard operating procedures established by the NCI PDMR (https://pdmr.cancer.gov/sops/default.htm). Briefly, all PDCs were thawed and cultured in Matrigel-coated flasks prepared with a working solution of 1X Ham's F-12 nutrient mix, without supplementation (Invitrogen, Waltham, MA, cat. 11765054), 100 U/mL penicillin-streptomycin (Invitrogen, cat. 15140122), and 2.5% Matrigel (Corning Inc., Corning, NY, cat. 354248) for the first three passages. All PDCs were cultured in complete DMEM/F-12 media containing advanced DMEM/F-12 (Invitrogen, cat. 12634028), 4.9% defined fetal bovine serum, heat inactivated (HyClone Laboratories Inc., Logan, UT, cat. SH30070.03HI), 389 ng/mL hydrocortisone (Sigma-Aldrich, cat. H4001), 9.7 ng/mL human EGF recombinant protein (Invitrogen, cat. PHG0313), 23.4 microg/mL adenine (Sigma-Aldrich, cat. A2786), 97.3 U/mL penicillin-streptomycin (Invitrogen, cat. 15140122), 1.9 mM L-glutamine (Invitrogen, cat. 25030081), and 9.7 microM Y-27632 dihydrochloride (Tocris Bioscience, Bristol, United Kingdom, cat. 1254). The PDCs were cultured in complete DMEM/F12 media without 9.7 microM Y-27632 dihydrochloride for at least two passages prior to the screen. The established cell line HOP-62 was cultured in RPMI 1640 medium, HEPES (Invitrogen, cat. 22400105) with 10% defined fetal bovine serum (HyClone Laboratories Inc., cat. SH30070.03) and 2 mM L-glutamine (Invitrogen, cat. 25030081). The pooled donor HUVEC were cultured in endothelial cell growth medium 2 (PromoCell, Heidelberg, Germany, cat. C-22011) and the hMSC were cultured in mesenchymal stem cell growth medium 2 (PromoCell, cat. C-28009). […]

CC(=O)Nc1cccc(-n2c(=O)n(C3CC3)c(=O)c3c(Nc4ccc(I)cc4F)n(C)c(=O)c(C)c32)c1 + COc1cc2nc(C)nc(NC(C)c3cc(N)cc(C(F)(F)F)c3)c2cc1OC1CCOC1
15.2 nM: IC50 (second compound 0.1 µM)
13.1 nM: IC50 (second compound 0.316 µM)
active: viability, T/C (second compound 10 µM, first compound 0.03 µM) 5.88%
13 nM: IC50 (second compound 1 µM)
15.3 nM: IC50 (second compound 0.0316 µM)
10.4 nM: IC50 (second compound 10 µM)
14.4 nM: IC50 (second compound 3.16 µM)
inactive: viability, T/C (second compound 0.0316 µM, first compound 94.9 pM) 126% | viability, T/C (second compound 0.0316 µM, first compound 0.0003 µM) 124% | viability, T/C (second compound 0.0316 µM, first compound 0.000949 µM) 105% | viability, T/C (second compound 0.0316 µM, first compound 0.003 µM) 92.6% | viability, T/C (second compound 0.0316 µM, first compound 0.00949 µM) 78.8% | viability, T/C (second compound 0.0316 µM, first compound 0.03 µM) 18.3% | viability, T/C (second compound 0.1 µM, first compound 94.9 pM) 105% | viability, T/C (second compound 0.1 µM, first compound 0.0003 µM) 129% | viability, T/C (second compound 0.1 µM, first compound 0.000949 µM) 129% | viability, T/C (second compound 0.1 µM, first compound 0.003 µM) 74.2% | viability, T/C (second compound 0.1 µM, first compound 0.00949 µM) 80.2% | viability, T/C (second compound 0.1 µM, first compound 0.03 µM) 18.6% | viability, T/C (second compound 0.316 µM, first compound 94.9 pM) 103% | viability, T/C (second compound 0.316 µM, first compound 0.0003 µM) 134% | viability, T/C (second compound 0.316 µM, first compound 0.000949 µM) 115% | viability, T/C (second compound 0.316 µM, first compound 0.003 µM) 82.6% | viability, T/C (second compound 0.316 µM, first compound 0.00949 µM) 68.8% | viability, T/C (second compound 0.316 µM, first compound 0.03 µM) 14.6% | viability, T/C (second compound 1 µM, first compound 94.9 pM) 108% | viability, T/C (second compound 1 µM, first compound 0.0003 µM) 125% | viability, T/C (second compound 1 µM, first compound 0.000949 µM) 91.4% | viability, T/C (second compound 1 µM, first compound 0.003 µM) 76.7% | viability, T/C (second compound 1 µM, first compound 0.00949 µM) 73.2% | viability, T/C (second compound 1 µM, first compound 0.03 µM) 15.2% | viability, T/C (second compound 3.16 µM, first compound 94.9 pM) 91% | viability, T/C (second compound 3.16 µM, first compound 0.0003 µM) 104% | viability, T/C (second compound 3.16 µM, first compound 0.000949 µM) 113% | viability, T/C (second compound 3.16 µM, first compound 0.003 µM) 68.8% | viability, T/C (second compound 3.16 µM, first compound 0.00949 µM) 76.4% | viability, T/C (second compound 3.16 µM, first compound 0.03 µM) 15.9% | viability, T/C (second compound 10 µM, first compound 94.9 pM) 83% | viability, T/C (second compound 10 µM, first compound 0.0003 µM) 99% | viability, T/C (second compound 10 µM, first compound 0.000949 µM) 97% | viability, T/C (second compound 10 µM, first compound 0.003 µM) 59.6% | viability, T/C (second compound 10 µM, first compound 0.00949 µM) 60.4%
